Measurements: US8226943B2, “Antibodies to notch receptors” (OncoMed Pharmaceuticals, Inc., priority 2008, dated 2012)

Columns and labels:
[1] = tested on: colon tumor xenograft line OMP-C8; assay: OMP-C8 colon tumor xenograft growth; assay type: in vivo, NOD/SCID mice; details: established tumors, 15 mg/kg once a week
Method: (§1) The 59R1 IgG2 antibody was also tested in vivo in the breast tumor xenograft lines OMP-B34, OMP-B39, OMP-B44, PE13, and UM-T1, the pancreas tumor xenograft line OMP-PN8, and the colon tumor xenograft line OMP-C8. These tumor xenograft lines were established by adhering to procedures described in Al-Hajj et al., 2003, Proc. Natl. Acad. Sci. USA, 100:3983-3988. Female NOD/SCID immuno-compromised mice 7-10 weeks old were used for the establishment of the breast tumor xenografts and male NOD/SCID mice were used for the OMP-Pn8 and OMP-C8 tumor-models (Harlan, Indianapolis, Ind.). The 59R1 IgG2 antibody was also tested in vivo in a Colo-205 colon tumor xenograft model. Female immunodeficient bg/nu XID mice on a Swiss CD-1 background were used for the Colo-205 xenograft tumor model. In case of the breast cancer models, slow-releasing estrogen pellets (0.36 mg) had to be implanted. Mice were subcutaneously injected on the right flank with 50,000 (OMP-B34, OMP-B39, OMP-B44, PE13, and UM-T1) or 1×10^7 (Colo-205) viable cells, respectively, in a mixture of PBS (without magnesium or calcium) and Matrigel at a 1:1 ratio. […] Antibodies were administered weekly and tumors measured twice weekly. […] Tumor volume was calculated as described Al-Hajj et al. (2003). Data are expressed as the mean and the mean±S.E.M. Group means were compared using Student's two-tailed, unpaired t-test. […]

[2] = tested on: breast tumors T1, PE13, and B51; assay: Gene Set Enrichment Analysis in treated breast tumors; assay type: in vivo, mice
Description: Several pathways/gene sets that are regulated by antibody 59R1 in tumor cells were identified (Table 9) using Gene Set Enrichment Analysis (Mootha et al., 2003, Nature Genetics 34:267-73; Subramanian et al., 2005, Proc. Natl. Acad. Sci. USA 102:15545-50) in the breast tumors T1, PE13, and B51.

[3] = tested on: B51 breast tumor cells; assay: B51 breast tumor recurrence after paclitaxel; assay type: in vivo, NOD-SCID mice; details: 59R1 10 mg/kg twice per week plus paclitaxel 15 mg/kg twice per week for 38 days, then antibody only
Method: B51 breast tumor cells (50,000 cells per mouse) were injected sub-cutaneously into the mammary fat pad of NOD-SCID mice. Tumors were allowed to grow for 50 days until they had reached an average volume of ˜100 mm^3. Animals were randomized (n=10/group) and treatments were initiated. One group received a control antibody (1B711) at 10 mg/kg twice per week and paclitaxel (Taxol) at 15 mg/kg twice per week and the other group received 59R1 at 10 mg/kg twice per week and paclitaxel at 15 mg/kg twice per week. Tumor volumes were measured on the indicated days. Treatments were carried out for 38 days until the tumor volumes had regressed to ˜50 mm^3, after which the paclitaxel treatments were halted and the antibody treatments continued for the duration of the experiment.

[4] = tested on: B51 breast tumors; assay: Limiting dilution assay of cancer stem cell frequency, B51 breast tumors; assay type: in vivo, NOD-SCID mice
Description: Limiting dilution assays (LDAs) can be used to assess the effect of a Notch-binding agent on solid tumor cancer stem cells and on the tumorigenicity of a tumor comprising the cancer stem cells. The assays can be sued to determine the frequency of cancer stem cells in tumors from animals treated with the Notch-binding agent or other agent and to compare that frequency to the frequency of cancer stem cells in tumors from control animals.
An LDA was used to assess the effect on the tumorigenicity of the B51 breast tumors that were treated with the combination of control antibody (1B711) plus paclitaxel (Taxol) or treated with the combination of 59R1 and paclitaxel, as described above in Example 7. In addition, the effect of treatment of B51 breast tumors with the control antibody alone or 59R1 alone was also determined by LDA. The doses of antibodies and paclitaxel and the schedule of dosing for the control antibody group and the 59R1 group were the same as described in Example 7, above for the other two treatment groups. After three doses of antibodies and/or paclitaxel, tumors were harvested, processed and dissociated into single cells. The human tumor cells were isolated from the xenograft tumor cells by incubation with biotinylated mouse antibodies (α-mouse CD45-biotin1:200 dilution and rat α-mouse H2 Kd-biotin1:100 dilution, BioLegend, San Diego, Calif.) on ice for 30 min, followed by addition of streptavidin-labeled magnetic beads and removal of the mouse cells with the aid of a magnet. The human cells in the suspension were harvested and counted.
A serial titration of cells (30, 90, 270, and 810 cells) from each of the four treatment groups was injected in a 1:1 (v/v) mixture of FACS buffer and Matrigel into a new set of NOD-SCID mice (n=10/group). Tumors were allowed to grow for 72 days. The percentage of mice with detectable tumors was determined in all groups. The cancer stem cell frequency was then calculated using L-Calc™ software (StemCell Technologies Inc.; downloadable from www.stemcell.com/search/default.asp).

[5] = tested on: breast tumor xenograft line UM-T1; assay: UM-T1 breast tumor xenograft growth; assay type: in vivo, NOD/SCID mice
Method: as §1

[6] = tested on: hJAG1-induced Notch2 signaling; assay: Luciferase reporter assay, hJAG1-induced Notch2 signaling in Hela cells; assay type: cell-based, human; details: 40 μg/ml
Method: Luciferase reporter assays were used to assay the 59R1 antibody for its ability to block hDLL4-, hJAG1-, and hJAG2-induced Notch2 signaling.
Hela cells that stably overexpress human Notch2 were transiently transfected with firefly luciferase with a synthetic 8×CBS promoter, pSPORT6 MAML-1, and Renilla luciferase-CMV as a transfection control. Cells were incubated with either 200 ng of immobilized hJAG1 (R&D systems) or hJAG2 (R&D systems) for 16 hours and then assayed using Dual-Glo (Promega) according to the manufacturer's instructions. 59R1 IgG2 antibody was at a concentration of 40 μg/ml. The gamma secretase inhibitor (GSI) dibenzazepine (DBZ) was used as a control at 1 μM.

[7] = B51, combination of 59R1 and paclitaxel

59R1: human IgG2 antibody binding Notch2 and Notch3; heavy and light chain SEQ ID NO:16 and 18; ATCC PTA-9547
C8 tumor growth relative to LZ1 control antibody [1]: inhibit tumor growth
cell cycle gene pathways, myc-activating genes and several stem cell gene sets [2]: down-regulated
B51 tumor recurrence after paclitaxel treatment [3]: recur more rapidly in the control group compared with the group treated with 59R1
reduction of cancer stem cell frequency relative to the control ([4]; B51, 59R1 alone): more than two-fold
reduction of cancer stem cell frequency relative to treatment with 59R1 alone [4, 7]: more than two-fold
reduction of cancer stem cell frequency relative to treatment with paclitaxel alone [4, 7]: about twelve-fold
reduction of cancer stem cell frequency relative to treatment with the control antibody [4, 7]: about 4.5 fold
T1 breast tumor growth ([5]; in the absence of estrogen treatment): ineffective
T1 breast tumor growth ([5]; in the presence of estrogen, 15 mg/kg once a week): effective at inhibiting tumor growth
hJAG1-induced Notch2 reporter activity [6]: inhibit
